These compounds were tested on AMP-activated protein kinase (AMPK) (assay: ADP Quest assay for AMPK activators). Conditions: fold of AMPK activation to phosphorylate SAMS peptide without and with an activator at the concentration of 30 µM.
Assay type: biochemical
Set-up: key: fold AMPK activation with vs without activator at 30 µM
Protocol: ADP Quest™ Assay for AMPK Activators
This method evaluates AMP-activated protein kinase (AMPK) activity through detecting the accumulation of ADP product using an ADP Quest kit and determining the E30 values of the small molecular AMPK activators. ADP Quest kit (DiscoveRx, Fremont, Calif.) is stored at −20° C. before use. Before an experiment, thaw the kit (include assay buffer, ADP standard solution, reagent A and reagent B) and equilibrate to room temperature. Dispense the ADP Quest reagents into single-use aliquots and store at −20° C. The compound concentrations typically range from 0 µM to 100 µM by 2-fold dilution. AMP concentrations range from […] to 1 mM as the reference control. In an assay, thaw and equilibrate the assay buffer, reagent A and reagent B to room temperature for 30 minutes prior to use. Mix ATP, SAMS peptide substrate and compound, and place them into the 384-well assay plate. Add reagent A and B based on the assay kit protocol. Incubate the assay plate at room temperature for 30 minutes after addition the mixture followed by the addition of AMPK protein (Invitrogen, CA) to initiate the AMPK phosphorylation reaction. At the same time, reactions with AMPK activator AMP in the absence of enzyme is included as blank control. The reaction fluorescence signal is monitored and recorded on Envision in kinetic mode with the excitation wavelength of 530 nm and emission wavelength of 590 nm. The E30 value, defined as the fold of AMPK activation to phosphorylate SAMS peptide without and with an activator at the concentration of 30 µM, is calculated and analyzed using Prism 5.0.

E30 | Structure (SMILES)
1.61 | CC1(C)Cc2cc(C(=O)NS(C)(=O)=O)ccc2NC1c1cc(F)cc(N2CCCC2)c1 (stereo not shown) [Example 61, N-[2-(3-Fluoro-5-pyrrolidin-1-yl-phenyl)-3,3-dimethyl-1,2,3,4-tetrahydro-quinoline-6-carbonyl]-methanesulfonamide]
1.61 | CC1(C)Cc2cc(C(=O)NS(=O)(=O)C3CC3)ccc2NC1c1cc(F)cc(N2CCCC2)c1 (stereo not shown) [Example 62, Cyclopropanesulfonic acid [2-(3-fluoro-5-pyrrolidin-1-yl-phenyl)-3,3-dimethyl-1,2,3,4-tetrahydro-quinoline-6-carbonyl]-amide]
1.56 | Cc1cc(C2Nc3ccc(C(=O)O)cc3CC2(C)C)cc(N2CCOCC2)c1 (stereo not shown) [Example 63, 3,3-Dimethyl-2-(3-methyl-5-morpholin-4-yl-phenyl)-1,2,3,4-tetrahydro-quinoline-6-carboxylic acid]
1.48 | Cc1cc(C2Nc3ccc(C(=O)NS(=O)(=O)C4CC4)cc3CC2(C)C)cc(N2CCOCC2)c1 (stereo not shown) [Example 64, Cyclopropanesulfonic acid [3,3-dimethyl-2-(3-methyl-5-morpholin-4-yl-phenyl)-1,2,3,4-tetrahydro-quinoline-6-carbonyl]-amide]
1.46 | Cc1cc(C2Nc3ccc(C(=O)NS(C)(=O)=O)cc3CC2(C)C)cc(N2CCOCC2)c1 (stereo not shown) [Example 65, N-[3,3-Dimethyl-2-(3-methyl-5-morpholin-4-yl-phenyl)-1,2,3,4-tetrahydro-quinoline-6-carbonyl]-methanesulfonamide]
1.42 | COc1cc(C2Nc3ccc(C(=O)O)cc3CC2(C)C)cc(N2CCOCC2)c1 (stereo not shown) [Example 66, 2-(3-Methoxy-5-morpholin-4-yl-phenyl)-3,3-dimethyl-1,2,3,4-tetrahydro-quinoline-6-carboxylic acid]
1.38 | COc1cc(C2Nc3ccc(C(=O)NS(=O)(=O)C4CC4)cc3CC2(C)C)cc(N2CCOCC2)c1 (stereo not shown) [Example 67, Cyclopropanesulfonic acid [2-(3-methoxy-5-morpholin-4-yl-phenyl)-3,3-dimethyl-1,2,3,4-tetrahydro-quinoline-6-carbonyl]-amide]
1.33 | COc1cc(C2Nc3ccc(C(=O)NS(C)(=O)=O)cc3CC2(C)C)cc(N2CCOCC2)c1 (stereo not shown) [Example 68, N-[2-(3-Methoxy-5-morpholin-4-yl-phenyl)-3,3-dimethyl-1,2,3,4-tetrahydro-quinoline-6-carbonyl]-methanesulfonamide]
1.28 | CC1(C)Cc2cc(C(=O)NS(C)(=O)=O)ccc2NC1c1cc(C#N)cc(N2CCOCC2)c1 (stereo not shown) [Example 69, N-[2-(3-Cyano-5-morpholin-4-yl-phenyl)-3,3-dimethyl-1,2,3,4-tetrahydro-quinoline-6-carbonyl]-methanesulfonamide]
1.23 | CC1(C)Cc2cc(C(=O)NS(=O)(=O)C3CC3)ccc2NC1c1cc(F)cc(C2CCCCC2)c1 (stereo not shown) [Example 70, Cyclopropanesulfonic acid [2-(3-cyclohexyl-5-fluoro-phenyl)-3,3-dimethyl-1,2,3,4-tetrahydro-quinoline-6-carbonyl]-amide]
1.22 | CC1(C)Cc2cc(C(=O)O)ccc2NC1c1cc(F)cc(N2CCNCC2)c1 (stereo not shown) [Example 71, 2-(3-Fluoro-5-piperazin-1-yl-phenyl)-3,3-dimethyl-1,2,3,4-tetrahydro-quinoline-6-carboxylic acid]
1.21 | CC1(C)Cc2cc(C(=O)O)ccc2NC1c1ccc(N2CCOCC2)cc1 (stereo not shown) [Example 72, 3,3-Dimethyl-2-(4-morpholin-4-yl-phenyl)-1,2,3,4-tetrahydro-quinoline-6-carboxylic acid]
1.21 | CC1(C)Cc2cc(C(=O)NS(=O)(=O)C3CC3)ccc2NC1c1ccc(N2CCOCC2)cc1 (stereo not shown) [Example 73, Cyclopropanesulfonic acid [3,3-dimethyl-2-(4-morpholin-4-yl-phenyl)-1,2,3,4-tetrahydro-quinoline-6-carbonyl]-amide]
